The numbers were not newly measured in PMC7961996, “Small Immunomodulatory Molecules as Potential Therapeutics in Experimental Murine Models of Acute Lung Injury (ALI)/Acute Respiratory Distress Syndrome (ARDS)” (International Journal of Molecular Sciences, 2021), which cites them from elsewhere.

Data set [1] has as its system murine macrophages and human peripheral blood monocytes-hPBMC. Details: method as in PMID 22654663. The note with it: in vitro; cited from earlier work.
Data set [2] relates to endotoxemia. Further details: method as in PMID 22654663. The note with it: in vivo; cited from earlier work.

With chitohexaose, in data set [1], the “LPS-induced inflammatory mediators such as TNF-α and IL-6” value is “blocks lipopolysaccharide (LPS)-induced inflammatory mediators”. In data set [2], the endotoxemia result is “reduces endotoxemia”.
